From the Kinase Knowledgebase extract (Sharma et al. 2016)

Molecular target: PIK3CG (human) (UniProt P48736)
Assay: Inhibition of PIK3CG Kinase Activity

Sequence of PIK3CG (human) (P48736 whole entry, looked up): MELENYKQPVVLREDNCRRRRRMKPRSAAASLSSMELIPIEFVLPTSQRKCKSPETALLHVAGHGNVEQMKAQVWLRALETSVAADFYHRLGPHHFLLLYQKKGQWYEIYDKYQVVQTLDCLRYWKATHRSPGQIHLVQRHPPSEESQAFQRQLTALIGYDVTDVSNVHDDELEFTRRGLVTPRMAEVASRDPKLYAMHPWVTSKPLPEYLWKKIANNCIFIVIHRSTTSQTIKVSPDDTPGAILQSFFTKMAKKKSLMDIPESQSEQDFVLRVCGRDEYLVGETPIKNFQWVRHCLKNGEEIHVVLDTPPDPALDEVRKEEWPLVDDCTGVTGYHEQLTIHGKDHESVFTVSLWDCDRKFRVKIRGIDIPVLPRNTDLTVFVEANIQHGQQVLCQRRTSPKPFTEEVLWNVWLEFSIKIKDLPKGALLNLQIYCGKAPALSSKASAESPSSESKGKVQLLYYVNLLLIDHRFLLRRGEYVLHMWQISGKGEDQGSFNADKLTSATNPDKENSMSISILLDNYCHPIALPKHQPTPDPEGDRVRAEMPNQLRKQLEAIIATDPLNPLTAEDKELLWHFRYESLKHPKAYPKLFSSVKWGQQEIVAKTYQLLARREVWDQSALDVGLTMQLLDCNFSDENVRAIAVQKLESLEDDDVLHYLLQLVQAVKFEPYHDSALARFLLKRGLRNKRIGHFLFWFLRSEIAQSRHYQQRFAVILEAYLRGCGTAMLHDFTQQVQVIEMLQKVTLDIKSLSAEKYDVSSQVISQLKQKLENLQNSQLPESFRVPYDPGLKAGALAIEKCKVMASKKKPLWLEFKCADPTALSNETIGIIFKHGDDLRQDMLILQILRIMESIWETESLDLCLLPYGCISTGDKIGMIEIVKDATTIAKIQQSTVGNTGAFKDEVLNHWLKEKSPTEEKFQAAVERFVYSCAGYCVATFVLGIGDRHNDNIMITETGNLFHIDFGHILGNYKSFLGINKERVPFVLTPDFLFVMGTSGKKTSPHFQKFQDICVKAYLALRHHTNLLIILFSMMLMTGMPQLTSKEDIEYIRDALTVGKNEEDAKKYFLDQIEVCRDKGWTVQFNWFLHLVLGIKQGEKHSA

Structure (SMILES)	IC50
NC(=O)Nc1nc2c(s1)-c1c(cnn1-c1cc(Cl)ccc1Cl)C2	< 800 nM
CCc1cnc(CCNC(=O)Nc2nc3c(s2)-c2c(cnn2-c2ccccc2Br)C3)o1	< 800 nM
CCOC(=O)CCNC(=O)Nc1nc2c(s1)-c1c(cnn1-c1ccccc1Br)C2	< 800 nM
CC(C)(C)OC(=O)NCc1ccccc1NC(=O)Nc1nc2c(s1)-c1c(cnn1-c1ccccc1Cl)C2	< 800 nM
CN(C)C(=O)Nc1nc2c(s1)-c1c(cnn1-c1ccccc1C(F)(F)F)C2	< 800 nM
CN(C(=O)OC(C)(C)C)C1CCN(C(=O)Nc2nc3c(s2)-c2c(cnn2-c2ccccc2Cl)C3)C1 (stereo unspecified)	< 800 nM
CCOC(=O)c1ccc(CNC(=O)Nc2nc3c(s2)-c2c(cnn2-c2ccccc2C(F)(F)F)C3)o1	< 800 nM
Nc1cc(CCNC(=O)Nc2nc3c(s2)-c2c(cnn2-c2ccccc2C(F)(F)F)C3)nn1C1CCCCC1	< 800 nM
Cc1nn(C)cc1CNC(=O)Nc1nc2c(s1)-c1c(cnn1-c1ccccc1Cl)C2	< 800 nM
CC(C)(C)OC(=O)N1CCC[C@H]1CNC(=O)Nc1nc2c(s1)-c1c(cnn1-c1ccccc1C(F)(F)F)C2	< 800 nM
Cn1cc(CCNC(=O)Nc2nc3c(s2)-c2c(cnn2-c2ccccc2C(F)(F)F)C3)cn1	< 800 nM
O=C(NCc1cccc(C(=O)NC2CCCCC2)c1)Nc1nc2c(s1)-c1c(cnn1-c1ccccc1Cl)C2	< 800 nM
CC(C)(C)OC(=O)Nc1cccc(CNC(=O)Nc2nc3c(s2)-c2c(cnn2-c2ccccc2Cl)C3)c1	< 800 nM
Cc1nc[nH]c1-c1cccc(CNC(=O)Nc2nc3c(s2)-c2c(cnn2-c2ccccc2Cl)C3)c1	< 800 nM
CNC(=O)Nc1nc2c(s1)-c1c(cnn1-c1cccc(F)c1C(F)(F)F)C2	< 800 nM
CC(C)Cn1nc(CCNC(=O)Nc2nc3c(s2)-c2c(cnn2-c2ccccc2C(F)(F)F)C3)cc1N	< 800 nM
CCN1CCC[C@H]1CNC(=O)Nc1nc2c(s1)-c1c(cnn1-c1ccccc1Cl)C2	< 800 nM
O=C(NCc1cccc(N2CCNC2=O)c1)Nc1nc2c(s1)-c1c(cnn1-c1ccccc1Cl)C2	< 800 nM
O=C(NCC1CCC(N2CCNC2=O)CC1)Nc1nc2c(s1)-c1c(cnn1-c1ccccc1Cl)C2 (stereo unspecified)	< 800 nM
Cc1ccc(CN2CC(NC(=O)Nc3nc4c(s3)-c3c(cnn3-c3ccccc3Cl)C4)CC2=O)cc1 (stereo unspecified)	< 800 nM
Cn1cc(CNC(=O)Nc2nc3c(s2)-c2c(cnn2-c2ccccc2C(F)(F)F)C3)cn1	< 800 nM
Cn1nc(CNC(=O)Nc2nc3c(s2)-c2c(cnn2-c2ccccc2C(F)(F)F)C3)cc1N	< 800 nM
C=CCn1cnc(CCNC(=O)Nc2nc3c(s2)-c2c(cnn2-c2ccccc2C(F)(F)F)C3)c1	< 800 nM

Structure (SMILES)	IC50
CC(C)(C)OC(=O)CCNC(=O)Nc1nc2c(s1)-c1c(cnn1-c1cc(Cl)ccc1Cl)C2	< 800 nM
O=C(Nc1nc2c(s1)-c1c(cnn1-c1ccccc1Cl)C2)N1CCC2(CC1)C(=O)NCN2c1ccccc1	< 800 nM
Nc1cc(CNC(=O)Nc2nc3c(s2)-c2c(cnn2-c2ccccc2C(F)(F)F)C3)[nH]n1	< 800 nM
CC(C)(O)Cn1cnc(CCNC(=O)Nc2nc3c(s2)-c2c(cnn2-c2ccccc2C(F)(F)F)C3)c1	< 800 nM
CCCn1nc(CCNC(=O)Nc2nc3c(s2)-c2c(cnn2-c2ccccc2C(F)(F)F)C3)cc1N	< 800 nM
O=C(NCc1cc(C2CC2)n[nH]1)Nc1nc2c(s1)-c1c(cnn1-c1ccccc1C(F)(F)F)C2	< 800 nM
CC1(C)NC(=O)N(Cc2ccc(CNC(=O)Nc3nc4c(s3)-c3c(cnn3-c3ccccc3Cl)C4)cc2)C1=O	< 800 nM
O=C(NCc1ccc(CN2CCNC2=O)cc1)Nc1nc2c(s1)-c1c(cnn1-c1ccccc1Cl)C2	< 800 nM
CN1CCC(O)C2(CCCN(C(=O)Nc3nc4c(s3)-c3c(cnn3-c3ccccc3Cl)C4)C2)C1 (stereo unspecified)	< 800 nM
O=C(NCC1CCCN(c2ncccn2)C1)Nc1nc2c(s1)-c1c(cnn1-c1ccccc1Cl)C2 (stereo unspecified)	< 800 nM
CC(C)c1noc(CCNC(=O)Nc2nc3c(s2)-c2c(cnn2-c2ccccc2C(F)(F)F)C3)n1	< 800 nM
Nc1cc(CCNC(=O)Nc2nc3c(s2)-c2c(cnn2-c2ccccc2C(F)(F)F)C3)nn1C1CCCC1	< 800 nM
O=C(NCc1ccccc1N1CCCCC1)Nc1nc2c(s1)-c1c(cnn1-c1ccccc1Cl)C2	< 800 nM
O=C(NCc1ccncc1)Nc1nc2c(s1)-c1c(cnn1-c1ccccc1C(F)(F)F)C2	< 800 nM
CCn1cnc(CCNC(=O)Nc2nc3c(s2)-c2c(cnn2-c2ccccc2Br)C3)c1	< 800 nM
Nc1cc(CCNC(=O)Nc2nc3c(s2)-c2c(cnn2-c2ccccc2C(F)(F)F)C3)[nH]n1	< 800 nM
CCCNC(=O)Nc1nc2c(s1)-c1c(cnn1-c1ccc(C(=O)NC)cc1C(F)(F)F)C2	< 800 nM
COc1ccccc1C1CCN(C(=O)Nc2nc3c(s2)-c2c(cnn2-c2ccccc2Cl)C3)C1 (stereo unspecified)	< 800 nM
Cn1nc(CNC(=O)Nc2nc3c(s2)-c2c(cnn2-c2ccccc2C(F)(F)F)C3)cc1O	< 800 nM
O=C(NCCc1nc(C2CC2)no1)Nc1nc2c(s1)-c1c(cnn1-c1ccccc1Cl)C2	< 800 nM
CCCn1cnc(CCNC(=O)Nc2nc3c(s2)-c2c(cnn2-c2ccccc2Br)C3)c1	< 800 nM
CC(C)(C)OC(=O)N1CCC(CNC(=O)Nc2nc3c(s2)-c2c(cnn2-c2ccccc2Cl)C3)CC1	< 800 nM
O=C(NCCc1cn[nH]c1)Nc1nc2c(s1)-c1c(cnn1-c1ccccc1C(F)(F)F)C2	< 800 nM

Structure (SMILES)	IC50
CCCn1ccc(CNC(=O)Nc2nc3c(s2)-c2c(cnn2-c2ccccc2C(F)(F)F)C3)n1	< 800 nM
CC(C)c1nnc(CCNC(=O)Nc2nc3c(s2)-c2c(cnn2-c2ccccc2C(F)(F)F)C3)o1	< 800 nM
O=C(NCCc1ccccc1)Nc1nc2c(s1)-c1c(cnn1-c1ccccc1Cl)C2	< 800 nM
O=C(NCc1ccoc1)Nc1nc2c(s1)-c1c(cnn1-c1ccccc1C(F)(F)F)C2	< 800 nM
Cn1cc(CNC(=O)Nc2nc3c(s2)-c2c(cnn2-c2ccccc2Cl)C3)cn1	< 800 nM
CC(C)(C)OC(=O)CCNC(=O)Nc1nc2c(s1)-c1c(cnn1-c1ccccc1C(F)(F)F)C2	< 800 nM
Nc1cc(CCNC(=O)Nc2nc3c(s2)-c2c(cnn2-c2ccccc2C(F)(F)F)C3)nn1C1CCN(Cc2ccccc2)CC1	< 800 nM
O=C(NCc1ccccc1-n1cccn1)Nc1nc2c(s1)-c1c(cnn1-c1ccccc1Cl)C2	< 800 nM
CCn1nc(CCNC(=O)Nc2nc3c(s2)-c2c(cnn2-c2ccccc2C(F)(F)F)C3)cc1N	< 800 nM
CN(Cc1cccs1)C(=O)Nc1nc2c(s1)-c1c(cnn1-c1ccccc1C(F)(F)F)C2	< 800 nM
Cn1cccc1CCNC(=O)Nc1nc2c(s1)-c1c(cnn1-c1ccccc1Cl)C2	< 800 nM
CC(C)n1nc(CCNC(=O)Nc2nc3c(s2)-c2c(cnn2-c2ccccc2C(F)(F)F)C3)cc1N	< 800 nM
Cc1cc(-c2ccccc2)n(CCNC(=O)Nc2nc3c(s2)-c2c(cnn2-c2ccccc2C(F)(F)F)C3)n1	< 800 nM
CCc1noc(CCNC(=O)Nc2nc3c(s2)-c2c(cnn2-c2ccccc2C(F)(F)F)C3)n1	< 800 nM
CCCCNC(=O)Nc1nc2c(s1)-c1c(cnn1-c1ccccc1Cl)C2	< 800 nM
CC(C)(C)OC(=O)N1CCC[C@@H]1CNC(=O)Nc1nc2c(s1)-c1c(cnn1-c1ccccc1C(F)(F)F)C2	< 800 nM
Cc1cc(-c2cccnc2)n(CCNC(=O)Nc2nc3c(s2)-c2c(cnn2-c2ccccc2C(F)(F)F)C3)n1	< 800 nM
CCc1nnc(CCNC(=O)Nc2nc3c(s2)-c2c(cnn2-c2ccccc2Cl)C3)o1	< 800 nM
Cc1cc(C)n(CCNC(=O)Nc2nc3c(s2)-c2c(cnn2-c2ccccc2C(F)(F)F)C3)n1	< 800 nM
Cc1c[nH]c(CCNC(=O)Nc2nc3c(s2)-c2c(cnn2-c2ccccc2Cl)C3)n1	< 800 nM
O=C(NCc1nnn[nH]1)Nc1nc2c(s1)-c1c(cnn1-c1ccccc1Cl)C2	< 800 nM
Nc1cc(CCNC(=O)Nc2nc3c(s2)-c2c(cnn2-c2ccccc2C(F)(F)F)C3)nn1CC(F)(F)F	< 800 nM
CC(C)c1noc(CCNC(=O)Nc2nc3c(s2)-c2c(cnn2-c2ccccc2Cl)C3)n1	< 800 nM

Structure (SMILES)	IC50
CCCCn1nc(CCNC(=O)Nc2nc3c(s2)-c2c(cnn2-c2ccccc2C(F)(F)F)C3)cc1N	< 800 nM
CCCn1cnc(CCNC(=O)Nc2nc3c(s2)-c2c(cnn2-c2ccccc2Cl)C3)c1	< 800 nM
CC(C)(C)OC(=O)NC1CCN(C(=O)Nc2nc3c(s2)-c2c(cnn2-c2ccccc2Cl)C3)C1 (stereo unspecified)	< 800 nM
CCn1nc(CNC(=O)Nc2nc3c(s2)-c2c(cnn2-c2ccccc2C(F)(F)F)C3)cc1N	< 800 nM
CCCNC(=O)Nc1nc2c(s1)-c1c(cnn1-c1ccccc1Br)C2	< 800 nM
O=C(NCCc1ccncc1)Nc1nc2c(s1)-c1c(cnn1-c1ccccc1Cl)C2	< 800 nM
CC(=O)NCC1CCCN(C(=O)Nc2nc3c(s2)-c2c(cnn2-c2ccccc2Cl)C3)C1 (stereo unspecified)	< 800 nM
CNC(=O)c1ccc(-n2ncc3c2-c2sc(NC(=O)NCc4cc(C5CC5)n[nH]4)nc2C3)c(C(F)(F)F)c1	< 800 nM
CC(C)n1nc(CNC(=O)Nc2nc3c(s2)-c2c(cnn2-c2ccccc2C(F)(F)F)C3)cc1N	< 800 nM
CC(C)(C)OC(=O)N1CCCCC1CNC(=O)Nc1nc2c(s1)-c1c(cnn1-c1ccccc1Cl)C2 (stereo unspecified)	< 800 nM
O=C(NCc1nnn[nH]1)Nc1nc2c(s1)-c1c(cnn1-c1ccccc1C(F)(F)F)C2	< 800 nM
CC(C)(C)CCNC(=O)Nc1nc2c(s1)-c1c(cnn1-c1ccccc1Cl)C2	< 800 nM
Nc1cc(CNC(=O)Nc2nc3c(s2)-c2c(cnn2-c2ccccc2C(F)(F)F)C3)nn1C1CCCC1	< 800 nM
O=C(NCc1cocn1)Nc1nc2c(s1)-c1c(cnn1-c1ccccc1C(F)(F)F)C2	< 800 nM
O=C(NCCN1CCCC1)Nc1nc2c(s1)-c1c(cnn1-c1ccccc1Br)C2	< 800 nM
Cc1cc(-c2cccnc2)nn1CCNC(=O)Nc1nc2c(s1)-c1c(cnn1-c1ccccc1C(F)(F)F)C2	< 800 nM
O=C(NCc1ccccn1)Nc1nc2c(s1)-c1c(cnn1-c1ccccc1C(F)(F)F)C2	< 800 nM
O=C(NCCO)Nc1nc2c(s1)-c1c(cnn1-c1ccccc1C(F)(F)F)C2	< 800 nM
CC(C)(C)OC(=O)CC1(O)CCN(C(=O)Nc2nc3c(s2)-c2c(cnn2-c2ccccc2Cl)C3)CC1	< 800 nM
CCN1CCC[C@@H]1CNC(=O)Nc1nc2c(s1)-c1c(cnn1-c1ccccc1Cl)C2	< 800 nM
O=C(Nc1nc2c(s1)-c1c(cnn1-c1ccccc1Cl)C2)N1CCC(N2CCNC2=O)CC1	< 800 nM
CCCNC(=O)Nc1nc2c(s1)-c1c(cnn1-c1cccc(F)c1C(F)(F)F)C2	< 800 nM
